Results as given in paper PMC5889558, “The inhibition of human lung fibroblast proliferation and differentiation by Gs-coupled receptors is not predicted by the magnitude of cAMP response” (Respiratory Research, 2018).

Legend:
[1] = test system: human lung fibroblasts (HLF); experiment: cAMP accumulation in HLF (HitHunter or AlphaScreen); assay type: cell-based; settings: HLF, 2 h, mean ± SEM, NC = not calculated due to incomplete curve; for EC50 / Emax: Homo sapiens, Fibroblast; for EC50 / cAMP pEC50: room temperature, 5 μM rolipram (excluded for PDE inhibitors), at least 3 experiments; for EC50: read-out: cAMP pEC50 (converted); for Emax / cAMP Emax (% max): percentage of the maximal forskolin response; for Emax: read-out: cAMP Emax (% max)
Protocol: HLF were grown to confluency in 96-well white ViewPlates, before incubation with a range of agonist concentrations, or vehicle, for 2 h at room temperature in HBSS with 5 mM HEPES, 0.1% w/v HSA, and 5 μM rolipram. […] Rolipram was excluded when measuring cAMP levels in response to PDE inhibitors. cAMP levels were measured using either HitHunter cAMP assay or AlphaScreen competition assay following manufacturer protocol, and were assessed on either a BMG LABTEK ClarioStar or a Packard EnVision plate reader. cAMP concentrations in each well were determined using a standard curve. To account for the inter-assay variation in levels of cAMP produced in each experiment, data were normalized to the maximal forskolin response.

[2] = test system: human lung fibroblasts (HLF); experiment: HLF proliferation by BrdU incorporation (DELFIA), driven by FBS or PDGF; assay type: cell-based; settings: 24 h; for Emax / EC50: Homo sapiens, Fibroblast; for Emax / Proliferation vs PDGF Emax (% max): EC80 PDGF, percentage of maximal proliferation observed with PDGF; for Emax: read-out: Proliferation vs PDGF Emax (% max); for EC50 / Proliferation vs PDGF pEC50: EC80 concentration of PDGF; for EC50: read-out: Proliferation vs PDGF pEC50 (converted); for maximal level of inhibition of PDGF-driven proliferation: near maximal PDGF
Protocol: Proliferation of HLF was measured by incorporation of bromodeoxyuridine (BrdU). HLF were seeded overnight at 4000 cells/well in 96-well black ViewPlates, before being starved for 24 h in culture medium devoid of FBS. Proliferation was measured after incubation with a range of concentrations of FBS or PDGF, in DMEM supplemented with 0.1% w/v HSA, for 24 h.
For anti-remodelling assays using BrdU incorporation, cells were incubated for 24 h with a range of concentrations of test compounds in the presence of near maximal concentrations of FBS or PDGF in DMEM supplemented with 0.1% w/v HSA. Proliferation was assessed using the DELFIA BrdU incorporation assay kit following manufacturer protocol. Fluorescence was measured using a Packard EnVision plate reader. To account for the inter-assay variation in levels of proliferation in each experiment, data were normalized to the PDGF or FBS response.

[3] = test system: human lung fibroblasts (HLF); experiment: Fibroblast to myofibroblast transdifferentiation (FMT), αSMA immunofluorescence, TGFβ-driven; assay type: cell-based; settings: 48 h, TGFβ 0.3 ng/mL
Protocol: To assess the differentiation of fibroblasts to the myofibroblast phenotype, immunofluorescence was used to monitor increases in α smooth muscle actin (αSMA). HLF were seeded overnight at 1000 cells/well in 384-well black clear bottom plates, before being starved for 24 h growth medium devoid of FBS.
For anti-remodelling assays using FMT, cells were incubated for 48 h with a range of concentrations of test compounds and incubated for 48 h, at 37°C, 5% CO2 in the presence of a near maximal concentration of TGFβ (0.3 ng/mL), to promote differentiation in DMEM supplemented with 0.1% w/v HSA. Following stimulation, cells were fixed in 4% paraformaldehyde, washed 3× in PBS (with Ca^2+/Mg^2+), and incubated with permeabilising blocking buffer (dPBS (with Ca^2+/Mg^2+), 10% FBS (v/v), 0.1% Triton X-100 (v/v)) for 1 h at 37°C. Wells were then washed 3× in wash buffer (Tris Buffered Saline (TBS), 0.05% (v/v) Tween-20) and incubated with mouse anti-α SMA (1:1000 dilution in permeabilising blocking buffer) for 1 h at room temperature, with gentle shaking. Following 3× wash in wash buffer, wells were incubated with blocking buffer containing Hoechst to stain for nuclear DNA (2 μM), and FITC-conjugated Affini-pure goat […] IgG (1:1000 dilution in blocking buffer) for 30 min at 37°C. Fluorescence was then quantified on a widefield ImageXpress Micro microscope, with a Plan Fluor 20X objective, DAPI filter cube (excitation 400–418 nm, emission 435–470 nm), 50 ms exposure time for nuclei, and FITC filter cube (excitation 467–498 nm, emission 513–556 nm), 200 ms exposure time for αSMA.
To quantify increases in αSMA fluorescence, a standard Multi-Wavelength Cell Scoring algorithm was used in MetaXpress 5.3 software (Molecular Devices, California, USA). To account for the inter-assay variation in levels of αSMA expression produced in each experiment, data were normalized to the response to TGFβ.

[4] = test system: human lung fibroblasts (HLF); experiment: Cell viability assay, caspase-3/7 as marker of apoptosis; assay type: cell-based; settings: 24 h
Protocol: Cell viability was measured using caspase-3/7 expression as a marker of apoptosis after treatment for 24 h with test compounds. HLF were seeded overnight at 6,000 cells/well in 96-well black ViewPlates, before being starved for 24 hours in culture medium devoid of FBS. Cells were incubated for 24 hours in the presence of test compounds at the top concentrations used in the proliferation assays, or in the presence of 100 nM staurosporine to induce apoptosis.
The presence of the apoptotic marker caspase-3/7 was detected by incubating cells with 8 μM CellEvent™ Caspase-3/7 Red Detection Reagent in dPBS with 5 % FBS, for 30 minutes at 37°C. […] Images were analyzed using a multi wavelength cell scoring algorithm within the MetaXpress 5.3 software, which measures cell number using stained nuclei, and percent of these cells positive for caspase-3/7 from Cy5 readouts. To account for the inter-assay variation in levels of caspase 3/7 detected in each experiment, data were normalized to the staurosporine response.
Statistical significance across treatment groups was determined by using the one-way ANOVA with Dunnett’s multiple-comparison post hoc test.

[5] = Agonist concentration remaining after incubation with HLF; assay type: in vitro ADME, human; settings: after 24 h incubation with HLF; unpublished data
[6] = inhibition of BrdU incorporation, NC = not calculated due to incomplete curve
[7] = inhibition of BrdU incorporation, mean ± SEM, NC = not calculated due to incomplete curve
[8] = HLF, 1:10 dilution of top conc 30 μM

| SMILES | EC50 [1] [µM] | Emax [1] [%] | Emax [2, 6] [%] | EC50 [2, 7] [µM] | inhibition of TGFβ-driven FMT (in words) [3] | cAMP pEC50 [1] | cAMP Emax (% max) [1] [% max] | maximal level of inhibition of PDGF-driven proliferation ([2]; BrdU) [%] | Proliferation vs PDGF Emax (% max) [2, 6] [% max] | Proliferation vs PDGF pEC50 [2, 7] | % cells positive for caspase-3/7, 1:10 dilution [4, 8] [%] | % cells positive for caspase-3/7, Top conc ([4]; HLF, top conc 30 μM) [%] | further results |
| --- | --- | --- | --- | --- | --- | --- | --- | --- | --- | --- | --- | --- | --- |
| CC(C)N(CCCCOCC(=O)O)c1cnc(-c2ccccc2)c(-c2ccccc2)n1 [MRE-269] | 0.178 | 52.9 ± 4.36 | 85.7 ± 7.65 | 0.316 | completely inhibit FMT |  |  |  |  |  |  |  | % cells positive for caspase-3/7, 1:10 dilution ([4]; HLF, 1:10 dilution of top conc 10 μM): 0.49 ± 0.22%; % cells positive for caspase-3/7, Top conc ([4]; HLF, top conc 10 μM, mean ± SEM, n=3): 0.49 ± 0.21%; original concentration of agonist remaining [5]: > 90% |
| N#Cc1c(N)nc(SCC(N)=O)c(C#N)c1-c1ccc(OCC2CC2)cc1 [BAY60–6583] |  |  |  |  | completely inhibit FMT | 6.57 ± 0.06 | 10.2 ± 2.89 | 100 | 100 ± 0.01 | 5.30 ± 0.12 | 1.04 ± 0.38 | 0.62 ± 0.14 | inhibition of FBS- and PDGF-driven proliferation (in words) ([2]; BrdU, either stimulus): fully inhibit both FBS- and PDGF-driven proliferation; maximal level of inhibition of serum-driven proliferation ([2]; BrdU, near maximal FBS): 100%; Proliferation vs serum pEC50 ([2]; inhibition of BrdU incorporation, EC80 concentration of serum, mean ± SEM, NC = not calculated due to incomplete curve): 5.30 ± 0.16; Proliferation vs serum Emax (% max) ([2]; inhibition of BrdU incorporation, EC80 serum, percentage of maximal proliferation observed with serum, NC = not calculated due to incomplete curve): 100 ± 0.01 % max |
| NCCc1ccc(O)c(O)c1 [Dopamine] | 4.07 | 41.2 ± 10 | 73.5 ± 13.5 | 16.6 | full concentration-response curves could not be established |  |  |  |  |  |  |  | % cells positive for caspase-3/7, 1:10 dilution ([4]; human, 3 μM): 1.21 ± 0.34%; % cells positive for caspase-3/7, Top conc ([4]; human, 30 μM): 0.83 ± 0.14% |
| CCNC(=O)[C@H]1O[C@@H](n2cnc3c(N)ncnc32)[C@H](O)[C@@H]1O [NECA] |  |  |  |  | full concentration-response curves could not be established | 5.39 ± 0.13 | 47.3 ± 3.40 | 38 | 37.8 ± 14.7 | 6.94 ± 0.43 | 0.67 ± 0.09 | 1.04 ± 0.20 |  |
